The text below walks through data of PMC6268071, “α-Glucosidase Inhibitory Constituents from Acanthopanax senticosus Harm Leaves” (Molecules, 2012).

Like-named read-outs stand apart in the source and are kept apart here. A value given as a limit tells only on which side of the number the result lay.

The assay has as its target α-Glucosidase (EC.3.2.1.20) from Saccharomyces sp. Briefly: α-Glucosidase inhibition assay. Type of assay: biochemical. On the procedure: Open column chromatography was carried out using silica gel (200–300 mesh, Qingdao Marine Chemical Co., Qingdao, China) or octadecyl silica gel (ODS, 25–40 μm, Fuji, Tokyo, Japan) as stationary phases. TLC employed precoated silica gel plates (5–7 μm, Qingdao Marine Chemical Co., Qingdao, China). Preparative HPLC was carried out on a Waters 600 instument equipped with a Waters RID-2414 detector. A Waters Sunfire prep C18 OBD (19 × 250 mm i.d.; Milford, PA, USA) column was used for preparative purposes. The IR spectra were recorded as KBr pellets on a Jasco 302-A spectrometer. Optical rotation was recorded on a Jasco P-2000 polarimeter. HRESIMS were measured on a FTMS-7 instrument (Bruker Daltonics, Karlsruhe, Germany). Melting points were determined on a Gallenkemp apparatus and are uncorrected. The ^1H-, ^13C- and 2D (^1H-^1H COSY, HSQC, HMBC, NOESY) NMR spectra were recorded on a Bruker AMX-400 spectrometer using standard pulse sequences. Chemical shifts are reported in ppm (δ), and scalar coupling are reported in Hz. GC analyses were carried out using a Fuli 9790 instrument, DM-5 column (0.25 μm, 30 m × 0.25 mm, Dikma, Beijing, China). α-Glucosidase (EC.3.2.1.20) from Saccharomyces sp. was purchased from Wako Pure Chemical Indutries Ltd. (Wako 076-02841; Osaka, Japan).
The α-glucosidase (EC.3.2.1.20) enzyme inhibition assay has been performed according to the literature. α-Glucosidase (25 μL, 0.2 U/mL), various concentrations of samples (25 μL), and 67 mM phosphate buffer (pH 6.8, 175 μL) were mixed at room temperature for 10 min. Reactions were initiated by the addition of 23.2 mM p-nitrophenyl-α-D-glucopyranoside (25 μL). The reaction mixtures were incubated at 37 °C for 15 min in a final volume of 250 μL, and then 1 M Na2CO3 (50 μL) was added to the incubation solution to stop the reaction. The activities of glucosidase were detected in a 96-well plate, and the absorbance was read at 405 nm by a microplate spectrophotometer (Spectra Max, Molecular Devices, Sunnyvale, CA, USA). The negative control was prepared by adding phosphate buffer instead of the sample in the same way as the test. […] The blank was prepared by adding phosphate buffer instead of α-glucosidase using the same method. The inhibition rates (%) were calculated from the formula: […]

Where [1] appears, read: in vitro α-glucosidase inhibitory assay, substrate p-nitrophenyl-α-D-glucopyranoside, pH 6.8, 37 °C, value ± SEM, read-out: IC50 (μM ± SEM).
[2] abbreviates: read-out: α-glucosidase inhibitory activity IC50.

Take `OCc1ccc(-c2nccc3c2[nH]c2ccccc23)o1` [Compound 7, perlolyrine]: the IC50 under setting [1] is greater than 1000 µM. The same measure, in the same setting: to `C=C(C)[C@@H]1CC[C@]2(C(=O)O[C@@H]3O[C@H](CO[C@@H]4O[C@H](CO)[C@@H](O[C@@H]5O[C@@H](C)[C@H](O)[C@@H](O)[C@H]5O)[C@H](O)[C@H]4O)[C@@H](O)[C@H](O)[C@H]3O)CC[C@]3(C)[C@H](C[C@H]4OC(=O)C[C@@H](O)[C@]5(C)[C@@H]4[C@@]3(C)CC[C@H]5C(=C)C)[C@@H]12` [Compound 3, chiisanoside] belongs greater than 1000 µM. `COC(=O)[C@H]1O[C@@H](O[C@H]2CC[C@@]3(C)C(CC[C@]4(C)C3CC=C3C5CC(C)(C)CC[C@]5(C(=O)O)CC[C@]34C)C2(C)C)[C@H](O[C@@H]2O[C@@H](C)[C@H](O)[C@@H](O)[C@H]2O)[C@@H](O)[C@@H]1O` (stereo partly drawn) [Compound 1, 3-O-[(α-L-rhamnopyranosyl)(1→2)]-[β-D-glucuronopyranosyl-6-O-methyl ester]-olean-12-ene-28-olic acid]: the half-maximal inhibitory concentration (IC50) was found to be 908 ± 67.3 µM under setting [1] and 186 µM under setting [2].

As to `O=C(O)c1cc2c([nH]c3ccccc32)c(-c2ccc(CO)o2)n1` [Compound 8, 3-carboxylperlolyrine], the IC50 under setting [1] was greater than 1000 µM. Turning to `COC(=O)CC1C(=O)Nc2ccc(OC)cc21` (stereo not drawn) [Compound 5, 5-methoxy-2-oxoindolin-3-acetic acid methyl ester], under setting [1], the IC50 is greater than 1000 µM. Consider `Oc1ccc([C@H]2Oc3cc(O)cc(O)c3C[C@@H]2O)cc1` [Compound 6, (+)-afzelechin], for which the IC50 amounted to 186 ± 12 µM under setting [1] and 820 µM under setting [2]. Moreover, where the note is “qualitative statement”, the “α-glucosidase inhibition activity (in words)” value is recorded as “significant α-glucosidase inhibition activity”.

With `COC(=O)[C@H]1O[C@@H](O[C@H]2CC[C@@]3(C)C(CC[C@]4(C)C3CC=C3C5CC(C)(C)CC[C@]5(C(=O)O)CC[C@]34C)C2(C)C)[C@H](O)[C@@H](O)[C@@H]1O` (stereo partly drawn) [Compound 2, 3-O-(β-D-glucuronopyranosyl-6-O-methyl ester)-olean-12-ene-28-olic acid], the IC50 under setting [1] is greater than 1000 µM. As for `C=C(C)[C@@H]1C[C@H](O)[C@]2(C(=O)O[C@@H]3O[C@H](CO[C@@H]4O[C@H](CO)[C@@H](O[C@@H]5O[C@@H](C)[C@H](O)[C@@H](O)[C@H]5O)[C@H](O)[C@H]4O)[C@@H](O)[C@H](O)[C@H]3O)CC[C@]3(C)[C@H](C[C@H]4OC(=O)C[C@@H](O)[C@]5(C)[C@@H]4[C@@]3(C)CC[C@H]5C(=C)C)[C@@H]12` [Compound 4, 22α-hydroxychiisanoside], the 50% inhibitory concentration (IC50) came out at 820 ± 91.6 µM under setting [1] and 908 µM under setting [2].
